# In article PMC8085013, “Mixture interactions at mammalian olfactory receptors are dependent on the cellular environment” (Scientific Reports, 2021):
# Tests used:
# mouse Olfr73 [1] = biological target: T1, mouse Olfr73 (Mus musculus, UniProt Q920P2); experiment: GCaMP3 calcium imaging of mouse OSNs ectopically expressing Olfr73 (rAAV2/5), 5-s odorant pulse; type: cell-based; conditions: 5-s pulse
# T1 sequence (Q920P2 1-313): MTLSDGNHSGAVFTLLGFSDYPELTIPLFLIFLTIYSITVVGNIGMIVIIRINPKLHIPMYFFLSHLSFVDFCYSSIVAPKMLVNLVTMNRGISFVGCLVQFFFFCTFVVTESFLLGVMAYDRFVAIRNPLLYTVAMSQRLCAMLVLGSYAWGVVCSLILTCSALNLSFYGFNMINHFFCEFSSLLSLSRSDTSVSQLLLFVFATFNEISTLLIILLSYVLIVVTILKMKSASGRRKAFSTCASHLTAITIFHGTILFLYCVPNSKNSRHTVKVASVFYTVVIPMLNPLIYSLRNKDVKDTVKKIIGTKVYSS
# mouse Olfr73 [2] = biological target: T1, mouse Olfr73; experiment: GCaMP3 calcium imaging of rat OSNs ectopically expressing Olfr73 (rAAV2/5), 5-s odorant pulse; type: cell-based; conditions: 5-s pulse
# mouse Olfr73 [3] = biological target: T1, mouse Olfr73; design: method as in PMID 25149566; conditions: starred cells, previously published in vitro work under the same conditions ref 25; cited from earlier work
# mouse Olfr73 [4] = biological target: T1, mouse Olfr73; design: method as in PMID 25149566; conditions: starred cells, previously published in vitro work under the same conditions ref 25; cited from earlier work; remark: listed apart in the source
# Olfr599 [5] = biological target: T2, Olfr599 (Mus musculus, UniProt Q8VG01); experiment: GCaMP3 calcium imaging of mouse OSNs ectopically expressing Olfr599 (rAAV2/5); type: cell-based; conditions: each at 100 µM, 5-s pulse
# Description: Animals 4–6 weeks of age were used for experiments 7–21 days post-inoculation with rAAV2/5 encoding OR-furin2A-GCaMP3. Calcium imaging was performed as detailed previously. Tissue was prepared and mounted with the apical surface facing up. The chamber was transferred to the stage of an upright microscope (Zeiss Axioskop-2F) equipped with a 40×/0.75NA long distance water-immersion objective lens. Experimental solutions were applied for a duration of 5 s directly to the field of view through a 100 µm diameter needle made of fused silica and connected to a 9-channel Teflon manifold. Solution application was controlled by electronic valves (VC-6, Warner Instruments). The calcium response is presented as an increase of GCaMP3 fluorescence originating from the knob and underlying dendrite. The tissue was illuminated using a standard eGFP filter cube BP490 nm/ 535 nm (Omega Optical, USA) and the emitted light was collected at 530 nm (BP 530/20 nm, Omega Optical, USA) by a 12-bit cooled CCD camera (ORCA R2, Hamamatsu, Japan). […] Before processing, fluorescence intensity was corrected for the background. Each knob was assigned a region of interest (ROI) and changes in fluorescence intensity within each ROI were analyzed and expressed as the peak fractional change in fluorescent light intensity (F-Fo)/Fo where Fo is the baseline fluorescence before application of experimental solutions.
# Olfr599 [6] = biological target: T2, Olfr599; experiment: Calcium imaging of HEK293 cells expressing Olfr599; type: cell-based
# Description: Heterologous expression of mouse ORs was based on the previously published method. HEK293 (ATCC CRL-1537) or HEK293T (ATCC CRL-3216) cells were grown in a high glucose […] (DMEM) supplemented with 10% FBS, penicillin and streptomycin, and 2 mM L-glutamine and maintained at 37 °C (5% CO2). A rhodopsin-tagged mouse olfactory receptor Olfr73 and Olfr599 (provided by Dr. Matsunami, Duke University) was co-expressed with RTP1s, a short version of the Receptor Transporting Protein 1 ensuring proper surface trafficking of the receptor (provided by Dr. Touhara, University of Tokyo). To reconstitute different G-protein coupled signaling pathways, one of the three G-proteins was co-expressed along with the OR and RTP1s, promiscuous mouse Gα15 (Thermo Scientific Open Biosystems), heterotrimeric Gαq11/ß1/γ13, both coupled to endogenous PLC/calcium release, and human Gαolf (Missouri S&T cDNA Resource Center). To assay activity-dependent accumulation of cAMP generated by activation of the Gs/Golf pathway, the cells were additionally co-transfected with a mutated A2 subunit of the rat olfactory cyclic nucleotide gated channel (CNGCmut). Two mutations C460W and E583M ensured high sensitivity and selectivity of the channel to cAMP (a gift from Dr. Rich, University of South Alabama). Transfections were performed using Calfectin (SignaGen). […]
# [7] = tested on: endogenous adrenergic receptors; experiment: Isoproterenol saturating control in the cAMP/CNGCmut calcium influx assay in HEK293 cells; type: cell-based; conditions: 10 µM, applied for 5-min
# Description: Calcium imaging was performed as described previously. HEK293 cells were incubated (30 min/37 °C) in a DMEM containing 6–8 µM Fluo-4/AM (Invitrogen) or Fluo-2/AM (TefLabs) containing 0.04% Pluronic F127. Activity of cells expressing untagged ORs from the bicistronic pTR plasmid was reported by expressed GCaMP3. Odorant solutions were applied sequentially to the cells for 5 s with a 3 min interval between each application to allow recovery from desensitization resulting from previous application of odorants. In the case of prolonged 10-min stimulation, the cells were allowed to recover for at least 10 min before adding a binary mix or isoproterenol alone, activating endogenous production of cAMP. Cells growing either on a 35-mm plastic dish or on a round poly-L-lysine coated cover glass were transferred to the stage of an inverted microscope (Axiovert 200, Zeiss) equipped with a 10x/0.5NA Fluar objective. Odorants were applied to the cells as a 5-s long pulse using a computer-controlled fast perfusion system (RSC-200, BioLogic, France) ensuring precise delivery of the stimulus with a minimal time lag. The perfusion system was controlled by Clampex 9.2 or 10.2 software (Molecular Devices). In some experiments, cells were pre-incubated with a putative antagonist for 30-s before applying a 5-s pulse of agonist. […]
# T2 sequence (Q8VG01 entry or part of it): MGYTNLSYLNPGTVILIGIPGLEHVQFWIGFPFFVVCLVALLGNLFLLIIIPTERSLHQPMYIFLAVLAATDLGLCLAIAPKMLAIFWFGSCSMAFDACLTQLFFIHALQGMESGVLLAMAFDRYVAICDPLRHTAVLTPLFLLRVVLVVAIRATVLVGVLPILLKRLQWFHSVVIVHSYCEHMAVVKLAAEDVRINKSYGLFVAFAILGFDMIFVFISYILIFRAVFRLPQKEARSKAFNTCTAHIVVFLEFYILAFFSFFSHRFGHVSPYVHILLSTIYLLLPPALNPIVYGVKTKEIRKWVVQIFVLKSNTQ
compound,measurement,setting,value
"C=C(C)[C@@H]1CCC2=CC(=O)C[C@@H](C)[C@]2(C)C1 [Nootkatone, nootkatone]","Agonism/antagonism, OSN Ca2+ Mouse","mouse Olfr73 [1]; strong agonist 100 µM, putative antagonist 1 mM, single or as pair",Agonist
same,Response relative to the response to eugenol,"mouse Olfr73 [1]; ligand 1 mM, Olfr73-OSNs",50%
same,Response to ligand applied alone,mouse Olfr73 [1]; mouse Olfr73-OSNs,weak agonist
same,"Agonism/antagonism, OSN Ca2+ Rat","mouse Olfr73 [2]; strong agonist 100 µM, putative antagonist 1 mM",Agonist
same,Response to ligand applied alone,mouse Olfr73 [2]; rat Olfr73-OSNs,lower than that to eugenol
same,"Agonism/antagonism, HEK293 short odor Ca2+ Gs/olf",mouse Olfr73 [3],Inactive*
same,"Agonism/antagonism, HEK293 short odor Ca2+ G15",mouse Olfr73 [4],Inactive*
CCCCCCCC(=O)O [Octanoic acid],Response to ligand applied alone,Olfr599 [5],evoked reliable neuronal responses
same,Response to ligand applied alone,"Olfr599 [6]; HEK293, Olfr599 with Gαq11/ß1/γ13, 100 µM",robust activation
same,EC50,"Olfr599 [6]; HEK293 cells, Olfr599",70 µM
CC(C)NCC(O)c1ccc(O)c(O)c1 (stereo not shown) [Isoproterenol],cAMP-dependent response,[7],robust sustained response
isoeugenol,"Agonism/antagonism, HEK293 short odor Ca2+ Gs/olf",mouse Olfr73 [3],Agonist*
same,"Agonism/antagonism, HEK293 short odor Ca2+ G15",mouse Olfr73 [4],Agonist*
